The source of these data is publication PMC9818021, “Targets, Mechanisms and Cytotoxicity of Half-Sandwich Ir(III) Complexes Are Modulated by Structural Modifications on the Benzazole Ancillary Ligand” (Cancers, 2022).

The test system of test [1] is A2780 (epithelial ovarian carcinoma cells). The test can be described thus: MTT cytotoxicity assay. Type of test: cell-based, human. The conditions noted are these: A2780, 48 h. On the procedure: (§1) Cell culture. Epithelial ovarian carcinoma cells (A2780) that acquired resistance to cisplatin epithelial ovarian carcinoma cells (A2780cis), colon adenocarcinoma cells (SW480) and epithelial lung adenocarcinoma cells (A549) were provided by Sigma Aldrich. A549 and SW480 cells were grown in Dulbecco′s Modified Eagle′s Medium (DMEM), supplemented with 10% Fetal Bovine Serum (FBS) and 1% penicillin, streptomycin and 1% glutamine for A549 and 1% amphotericin B for SW480. The A2780 and A2780cis were grown in RPMI 1640 supplemented with 10% Fetal Bovine Serum (FBS), 1% glutamine and 1% penicillin, streptomycin and amphotericin B. All cells were incubated in a humidified incubator at 37 °C under a 5% CO2 atmosphere and grown in 100 mm culture dishes to approximately 70–80% confluence. For subculturing, cells were detached with Trypsin-EDTA (Sigma). A549-gal were derived from A549 cultured in glucose-free medium supplemented with 10 mM galactose (Sigma) for at least 10 passes.
(§2) Cytotoxicity. MTT Assay and IC50 estimation. The cytotoxicity of 1[C,NH-Cl], 2[C,NMe-Cl], 3[N,NH-Cl]Cl, 4[N,NMe-Cl]Cl, 5[CNH2,NH-Cl]Cl, 6[CNH2,S-Cl]Cl, 7[CO,NH-Cl] and 8[CO,S-Cl] in A2780, A2780cis, SW480 and A549 carcinoma cells was evaluated by the MTT colorimetric assay. Cells were seeded in 96-well plates at 5000 cells per well and incubated at 37 °C, 5% CO2. After 24 h, the medium was removed and replaced with fresh medium with different concentrations of the compounds under study, and they were incubated for 48 h. Final DMSO concentration was kept below 0.7% in wells. For a negative control, one sequence of cells was left untreated and for vehicle control, cells treated with DMSO were included. For cell viability experiments preincubating with NAC (N-Acetyl-L-Cysteine), the cells were pre-treated with NAC, 10 mM for 2 h before the incubation with complex 1[C,NH-Cl] for 24 h. Then, the medium was removed from the wells, and 100 µL MTT (5 mg/mL) was added. After an incubation time of 4 h, 100 μL of solubilizing detergent solution (SDS, 10% in HCL 0.01 M) was added and kept in the incubator overnight. Cell growth inhibition was detected by measuring the absorbance of each well at 595 nm using a BioTek Cytation5 microplate reader. Each test was repeated in quadruplicate in three independent experiments for each cell line. The percentage of survival cells was calculated using absorbance measurements compared with control and the IC50 estimation using Graph Pad Prism version 6.01.
In general terms: Tetrazolium assays rely on reduction of a dye to a coloured formazan, in cell work by metabolically active cells.

Test [2] has as its system A549 (epithelial lung adenocarcinoma cells). Nature of the test: MTT cytotoxicity assay. Type of test: cell-based, human. The conditions noted are these: A549, 48 h. As for the experimental part:
as §1, §2

Test [3] relates to A2780cis (ovarian, acquired resistance to cisplatin). Nature of the test: MTT cytotoxicity assay. It is filed as cell-based, human. The conditions noted are these: 48 h; for IC50: A2780cis. As for the experimental part:
as §1, §2

In test [4] the test system is SW480 (colon adenocarcinoma cells). Nature of the test: MTT cytotoxicity assay. It is filed as cell-based, human. The conditions noted are these: SW480, 48 h. As for the experimental part: as §1, §2
Test [5] relates to Calf thymus DNA. Nature of the test: DNA viscosity measurements. The settings on record: as a function of CD/CP, overnight incubation. It is filed as binding. On the procedure: Viscosity measurements were performed using a Micro-Ubbelohde viscometer whose temperature was controlled externally (25 ± 0.1 °C). The flow time was measured with a digital stopwatch. Mean values of triplicated measurements were taken to evaluate the DNA viscosity in the absence (η0) and in the presence, (η) of iridium complexes. The viscosity readings were expressed as L/L0 = (η/η0)^1/3 versus the CD/CP ratio. The data was analysed using […] where t0 and tDNA are the buffer and polynucleotide solution flow times, respectively, whereas t is the flow time of the Ir-complex/DNA mixture after the stabilization period.

For test [6], the system named is ROS (superoxide anion, hydrogen peroxide). The test can be described thus: ROS generation (DHE and H2DCFDA, flow cytometry). Type of test: cell-based. The settings on record: after 3 h. On the procedure:
Specific assays with 1[C,NH] complex were performed according to manufacturer’s instructions using the following reagents from Molecular Probes (Thermo Fisher Scientific): Measurements of ROS: Dihydroethidium (DHE, D11347) and 2′, 7′-dichlorodihydrofluorescein diacetate (H2DCFDA, D399); detection of caspases 3/7: CellEvent Caspase-3/7 Green Detection Reagent (C10423); Cell viability: Live/Dead Cell Imaging Kit (R37601); Analysis of cytosolic calcium concentration: Fluo3/AM (F23915); Analysis of MMP: Tetramethylrhodamine methyl ester perchlorate (TMRM, T668). RT-qPCR’s assays were performed with the following primers/probes from Thermo Fisher Scientific: DCP1A (Hs00218198-m1), FOSB (Hs00171851-m1), EGR1(Hs0015928-m1), ATF3 (Hs00231069-m1), DDIT3 (Hs00358796-g1), PP1R15A (Hs00169585-m1), CHAC1(Hs00225520-m1), MIR9-1 (Hs04231512-s1), ATP1B2 (Hs00155922-m1), BBC3 (Hs00248075-m1), BCL2L11 (Hs00798019-s1), PMAIP1 (Hs00560402-m1), SKP2 (Hs01021864-m1) and HIST1H1B (Hs00271207-s1). RT-qPCR experiments were performed as described.
For orientation: In flow cytometry, cells or beads pass a laser one at a time.

Test [7] concerns plasmid DNA (pUC18). The test can be described thus: Agarose gel electrophoresis of plasmid DNA. It is filed as binding, Escherichia coli. The conditions noted are these: pUC18 20 µM, overnight 37 °C. On the procedure: Agarose Gel electrophoresis of plasmid DNA Overnight cultures of the strain DH5α of Escherichia coli were isolated with the Quiagen DNA purification kit. Then, 20 µM (in base pairs) of plasmid DNA (pUC18) was incubated with different concentrations of the synthesized iridium complexes overnight at 37 °C. Afterwards, 2 μL of loading buffer were added to 10 μL of the incubated samples and loaded onto a 1% agarose gel. Electrophoresis was run in TAE 1× at 6.5 V/cm during 2.5 h. Then, the agarose gel was stained with ethidium bromide 1 μg/mL and visualized with a Gel Doc XR+ Imaging System (Bio-Rad, Hercules, CA, USA).

By IC50 is commonly meant the concentration that gives 50% inhibition. Read a high IC50 as lower potency. For `Cc1c(C)c(C)[c-](C)c1C.[Cl-].[Cl][Ir]1[NH2+]c2ccccc2-c2[nH]c3ccccc3[n+]21` [5[CNH2,NH], [(η^5-Cp*)IrCl(κ^2-N,N-apbim)]Cl], the IC50 was 17 ± 1 µM in test [1], above 100 µM in test [2], 30 ± 1 µM in test [3] and 34 ± 1 µM in test [4].

Take `Cc1c(C)c(C)[c-](C)c1C.Cn1c2[n+](c3ccccc31)[Ir]([Cl])[c]1ccccc1-2` [2[C,NMe], [(η^5-Cp*)IrCl(κ^2-N,C-NMepbim)]]: in test [5], the “Relative viscosity of DNA (L/L0)” value is recorded as “No variations”. For the same compound, the “DHE fluorescence (superoxide anion levels)” value (from here on “DHE fluorescence”) in test [6] was “increased”. Besides, the “Migration pattern of plasmid DNA” value in test [7] is “unable to interact with DNA”. Further, the IC50 in test [1] was 9 ± 1 µM; in test [2] it was 10 ± 1 µM; in test [3] it was 13 ± 1 µM. In test [3], the “Resistance Factor (RF) IC50,A2780CIS/IC50,A2780” value (“Resistance Factor” for short) was “no cross-resistance”.

As to `Cc1c(C)c(C)[c-](C)c1C.[Cl][Ir]1[O]c2ccccc2-c2sc3ccccc3[n+]21` [8[CO,S], [(η^5-Cp*)IrCl(κ^2-O,N-hpbtz)]], the “DHE fluorescence” value in test [6] is “increased”. Moreover, the IC50 was 2 ± 1 µM in test [1], 41 ± 5 µM in test [2], 6 ± 2 µM in test [3] and 34 ± 1 µM in test [4]. Also, the “Resistance Factor” value in test [3] was above 2.

`Cc1c(C)c(C)[c-](C)c1C.[Cl][Ir]1[O]c2ccccc2-c2[nH]c3ccccc3[n+]21` [7[CO,NH], [(η^5-Cp*)IrCl(κ^2-O,N-hpbim)]]: the 50% inhibitory concentration (IC50) in test [1] is 14 ± 1 µM; in test [2], 43 ± 3 µM; in test [3], 42 ± 1 µM; in test [4], above 100 µM. Also, the “Resistance Factor” value in test [3] is on record as above 2.

`Cc1c(C)c(C)[c-](C)c1C.Cn1c2[n+](c3ccccc31)[Ir]([Cl])[n+]1ccccc1-2.[Cl-]` [4[N,NMe], [(η^5-Cp*)IrCl(κ^2-N,N-pyMebim)]Cl]: the IC50 in test [1], in test [2], in test [3] and in test [4] was above 100 µM throughout.

For `Cc1c(C)c(C)[c-](C)c1C.[Cl-].[Cl][Ir]1[n+]2ccccc2-c2[nH]c3ccccc3[n+]21` [3[N,NH], [(η^5-Cp*)IrCl(κ^2-N,N-pybim)]Cl], the “Relative viscosity of DNA (L/L0)” value in test [5] is recorded as “drastically declined”. Further, the 50% inhibitory concentration (IC50) is 84 ± 1 µM in test [1], above 100 µM in test [2], 48 ± 1 µM in test [3] and 90 ± 1 µM in test [4].

In the case of `Cc1c(C)c(C)[c-](C)c1C.[Cl-].[Cl][Ir]1[NH2+]c2ccccc2-c2sc3ccccc3[n+]21` [6[CNH2,S], [(η^5-Cp*)IrCl(κ^2-N,N-apbtz)]Cl], the 50% inhibitory concentration (IC50) was above 100 µM in test [1], above 100 µM in test [2], 48 ± 2 µM in test [3] and 40 ± 1 µM in test [4].

For the compound `Cc1c(C)c(C)[c-](C)c1C.[Cl][Ir]1[c]2ccccc2-c2[nH]c3ccccc3[n+]21` [1[C,NH], [(η^5-Cp*)IrCl(κ^2-N,C-pbim)]], the “Relative viscosity of DNA (L/L0)” value in test [5] is “No variations”. In test [6], the “DHE fluorescence” value was “increased”. The “Migration pattern of plasmid DNA” value in test [7] is reported as “unable to interact with DNA”. Further, the IC50 in test [1] worked out at 5 ± 2 µM; in test [2], 10 ± 1 µM; in test [3], 5 ± 1 µM; in test [4] it was 5 ± 2 µM. In addition, the “Resistance Factor” value in test [3] is given as “no cross-resistance”.
